Experimental data reported in PMC12024912, “Druggability Studies of Benzene Sulfonamide Substituted Diarylamide (E3) as a Novel Diuretic” (Biomedicines, 2025).

Legend:
UT-B = molecular target: T1, UT-B (Rattus norvegicus, UniProt P97689); assay: Stopped-flow measurement of erythrocyte urea permeability; assay type: cell-based
T1 construct: endogenous in cells; host or cells: erythrocytes from male SD rats
T1 sequence (P97689 1-384): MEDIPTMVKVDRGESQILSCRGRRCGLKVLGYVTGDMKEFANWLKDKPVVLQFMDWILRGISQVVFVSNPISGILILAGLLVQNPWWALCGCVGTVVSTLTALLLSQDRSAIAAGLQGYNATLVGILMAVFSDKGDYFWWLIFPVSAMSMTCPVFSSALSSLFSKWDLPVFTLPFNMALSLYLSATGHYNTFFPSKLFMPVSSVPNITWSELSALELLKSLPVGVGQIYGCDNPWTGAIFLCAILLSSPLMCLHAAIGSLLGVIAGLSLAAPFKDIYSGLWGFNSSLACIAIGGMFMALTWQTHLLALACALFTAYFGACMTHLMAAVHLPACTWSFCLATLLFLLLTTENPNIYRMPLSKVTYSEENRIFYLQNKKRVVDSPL
Protocol: Erythrocyte urea permeabilities were assessed via stopped-flow light scattering (SX20, Applied Photophysics, Leatherhead, UK) following established protocols. Erythrocyte was acquired from rat blood and suspended in isotonic PBS (hematocrit 0.5%). Then, the erythrocyte was incubated with test compounds for 5 min and quickly mixed with 500 mmol/L urea dissolved in PBS. Following an initial osmotic shrinking phase, the kinetics of cell volume increase due to urea influx were measured by monitoring the time course of 90° scattered light intensity at 530 nm. […] Keep samples and PBS at 4 °C to reduce the influence of free diffusion. To assay reversibility, compounds were added to erythrocytes for 5 min and then washed with PBS 3 times by 2000 r/min centrifugation before stopped-flow measurements. To determine inhibition on urea efflux, erythrocytes were incubated with 500 mmol/L urea in PBS for 2 h, then mixed with PBS without urea.

SD rats = assay: Diuretic effect of single intragastric administration in rats (metabolic cages); assay type: in vivo, rat
Protocol: In a single-dose administration experiment, male wild-type (WT) mice, UT-B^-/- mice, UT-A1^-/- mice, or SD rats were adapted in metabolic cages for 3 d. Food and water were provided ad libitum throughout the experiment. Prior to administration, the bladder of each animal was emptied through gentle abdominal massage, and urine was collected from the metabolic cages every 2 h. Compound E3, suspended in 0.5% CMC-Na at an appropriate concentration, was administered intragastric gavage to the mice or rats (0.16, 0.8, 4, or 20 mg/kg). Vehicle control comprised 0.5% (w/v) CMC-Na. Urinary parameters were determined through the following: volume: Gravimetric analysis (1 g/mL density assumption); osmolality: freezing-point osmometry (Micro-osmometer, […] Associates, Norwood, MA, USA); and urea: diacetyl oxime colorimetry (QuantiChrom® kit, Elabscience, Wuhan, China). In long-term (7 d) diuretic activity experiments, male WT mice, UT-B^-/- mice, UT-A1^-/- mice, and SD rats were acclimatized in metabolic cages (Ugo Basile, Comerio, VA, Italy) for 3 d. Food and water were provided ad libitum throughout the experiment. E3 was suspended in 0.5% CMC-Na and administered at a dose of 4 or 20 mg/kg by intragastric gavage. Urine was collected by metabolic cages every 24 h. Body weight was measured daily. At 4 h after the final administration, a blood sample was obtained by heart puncture. Inner medulla and outer medulla tissue homogenates were prepared, and the supernatant after centrifugation was analyzed for solute concentration and osmolality. Urinary osmolality and urea concentration were measured as above. Serum Na^+, K^+, and Cl^- were measured in a clinical chemistry laboratory, while serum creatinine, ALT, and AST were measured through specific reagent kits (NJJC Bio, Nanjing, China).

[1] = Subacute oral toxicity test in mice; assay type: in vivo; settings: male, mouse, in vivo, 1000 mg/kg, oral, 30 d, read-out: no observed adverse effect level (NOAEL)
Protocol: (§1) The subacute oral toxicity test was performed according to “Guidance on Repeated Dose Toxicity Study for Pharmaceuticals” (2014). […] Eighteen male mice were evenly divided into two groups. Mice of the control group were orally administered with solvent (0.5% CMC-Na). Another group was orally administered with E3 1000 mg/kg. The solvent or E3 was administered once a day for 30 continuous days and withdrawn for 14 d for recovery. After the 30-day treatment, 12 mice (6/group) were chosen at random and sacrificed for necropsy.
(§2) During the study, the clinical symptoms, morbidity, and mortality of mice were observed twice a day at the side of the cage. Changes in appearance, behavior, appetite, gait, secretions, and excretions of the rats were meticulously documented. The body weights were measured before the start of the experiment, and the weights were measured every 2 d thereafter. Echocardiography was performed and evaluated every 10 d. Under anesthesia, blood samples were taken before the autopsy for hematological and clinical biochemistry analysis by an automated hematology analyzer (HEMAVET 950FS, Drew Scientific, TX, USA) and an automated biochemical analyzer (BS-180, Mindray Diagnostics, Shenzhen, China). The following organs were weighed: heart, liver, kidney, spleen, lung, thymus gland, testis, and brain. Furthermore, the corresponding organ/body weight ratio was computed. A comprehensive histopathological analysis was performed on vital tissues and organs.

mice = assay: Subacute oral toxicity test in mice; assay type: in vivo
Protocol: as §1, §2

CC(=O)c1ccc(C(=O)Nc2cccc(NS(=O)(=O)c3ccccc3)c2)o1 [Compound E3, 5-acetyl-N-(3-(phenylsulfonamido)phenyl)furan-2-carboxamide]
reversibility of UT-B inhibition (UT-B; 1 μM followed by washout with PBS): reversible
UT-B-mediated urea influx into erythrocytes (UT-B; stopped-flow light scattering, rat erythrocytes): dose-dependently inhibit
UT-B-mediated urea efflux (UT-B; stopped-flow, erythrocytes preloaded with high urea, mixed with isotonic PBS): inhibited UT-B-mediated urea efflux in a dose-dependent manner
urinary osmolality (SD rats; single intragastric gavage): decreased
urinary urea (SD rats; single intragastric gavage): decreased
urine output (SD rats; single intragastric gavage 0.16-20 mg/kg, vs vehicle): significantly increased
excretion of non-urea solutes (SD rats; single intragastric gavage, vs control): not significantly different
NOAEL at 30 d [1]: 1000 mg/kg/day
appearance, behavior, secretions, and excretions (mice; 1000 mg/kg daily oral, 30 days): no apparent abnormality
body weight or organ indexes (mice; 1000 mg/kg daily oral, 30 days): no significant change
histopathology of brain, lung, heart, spleen, liver, kidney, testis (mice; 1000 mg/kg daily oral, 30 days): No histopathological toxic lesion
blood parameters and blood biochemical indexes (mice; 1000 mg/kg daily oral, 30 days, vs control): no significant changes
left ventricular ejection fraction and fractional shortening (cardiac ultrasound) (mice; 1000 mg/kg daily, during and after administration): no significant abnormality
EOS (mice; 1 g/kg, 30 d, mean, n=9): 0.13%
HB (mice; 1 g/kg, 30 d, mean, n=9): 80.11 g/L
HCT (mice; 1 g/kg, 30 d, mean, n=9): 41.04%
LYM (mice; 1 g/kg, 30 d, mean, n=9): 74.12%
MCH (mice; 1 g/kg, 30 d, mean, n=9): 9.96 pg
MCHC (mice; 1 g/kg, 30 d, mean, n=9): 195.33 g/L
MCV (mice; 1 g/kg, 30 d, mean, n=9): 51.09 fL
MONO (mice; 1 g/kg, 30 d, mean, n=9): 3.02%
MPV (mice; 1 g/kg, 30 d, mean, n=9): 3.01 fL
NEU (mice; 1 g/kg, 30 d, mean, n=9): 22.71%
PLT (mice; 1 g/kg, 30 d, mean, n=9): 1313.22 109/L
RBC (mice; 1 g/kg, 30 d, mean, n=9): 8.03 1012/L
RDW (mice; 1 g/kg, 30 d, mean, n=9): 16.07%
WBC (mice; 1 g/kg, 30 d, mean, n=9): 8.37 109/L
delayed toxicity (14 d recovery period) (mice; after 30 d of 1000 mg/kg): no delayed toxicity
